The molecules below were run against human integrin αvβ6 (Homo sapiens (Human), UniProt P06756+P18564) (assay: Proximity-based integrin receptor binding assay (ALPHASCREEN) for inhibitor potency). Settings: inhibition of binding of TGF-b1 LAP to human integrin αvβ6; values given in ranges.
Method: To gauge the potency of inhibitors of binding to human integrin αvβ6, inhibitor compounds and integrin were incubated together with TGF-b1 LAP and biotinylated anti-LAP antibody plus acceptor and donor beads, following the manufacture's recommendations. The donor beads were coated with streptavidin. […] All incubations occurred at room temperatures in 50 mM Tris-HCl, pH 7.5, 0.1% BSA supplemented with 1 mM each CaCl2 and MgCl2.
The order of reagent addition was as follows:
1. Alpha-v-beta-6 integrin, test inhibitor compound, LAP, biotinylated anti-LAP antibody and acceptor beads were all added together.
2. After 2 hours, donor beads were added. After another 30 minute incubation, samples were then read.
Integrin binding was evaluated by exciting donor beads at 680 nm, and measuring the fluorescent signal produced, between 520-620 nm, using a Biotek Instruments (Winooski, Vt., USA) SynergyNeo2 multimode plate reader. […] Data analysis for IC50 determinations was carried out by nonlinear four parameter logistic regression analysis using Dotmatics ELN Software (Core Informatics Inc., Branford, Conn.).

human integrin αvβ6, sequence (P06756 31-992): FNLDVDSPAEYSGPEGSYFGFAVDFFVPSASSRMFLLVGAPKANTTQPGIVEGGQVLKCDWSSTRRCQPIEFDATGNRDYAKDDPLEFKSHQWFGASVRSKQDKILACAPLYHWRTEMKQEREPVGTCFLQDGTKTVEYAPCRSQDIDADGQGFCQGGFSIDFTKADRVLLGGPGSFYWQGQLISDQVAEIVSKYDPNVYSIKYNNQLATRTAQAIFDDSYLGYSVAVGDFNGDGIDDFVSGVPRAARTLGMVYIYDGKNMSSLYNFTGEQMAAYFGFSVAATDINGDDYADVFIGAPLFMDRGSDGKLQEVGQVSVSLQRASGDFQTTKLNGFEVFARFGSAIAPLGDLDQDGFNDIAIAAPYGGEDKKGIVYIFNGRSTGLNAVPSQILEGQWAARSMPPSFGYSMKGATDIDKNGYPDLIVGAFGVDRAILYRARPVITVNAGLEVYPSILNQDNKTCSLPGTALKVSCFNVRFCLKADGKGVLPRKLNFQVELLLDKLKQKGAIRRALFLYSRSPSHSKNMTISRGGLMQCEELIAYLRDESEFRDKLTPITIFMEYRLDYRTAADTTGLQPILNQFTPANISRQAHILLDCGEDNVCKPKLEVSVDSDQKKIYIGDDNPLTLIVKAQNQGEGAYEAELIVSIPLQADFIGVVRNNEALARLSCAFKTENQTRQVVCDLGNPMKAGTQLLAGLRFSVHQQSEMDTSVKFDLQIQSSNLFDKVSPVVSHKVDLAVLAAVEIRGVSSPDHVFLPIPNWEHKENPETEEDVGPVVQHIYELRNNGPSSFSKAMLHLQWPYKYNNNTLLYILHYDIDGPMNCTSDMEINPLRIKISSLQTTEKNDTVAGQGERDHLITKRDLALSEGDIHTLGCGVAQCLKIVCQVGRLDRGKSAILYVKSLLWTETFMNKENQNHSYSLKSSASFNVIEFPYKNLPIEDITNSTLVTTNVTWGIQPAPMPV
human integrin αvβ6, sequence (P18564 22-707): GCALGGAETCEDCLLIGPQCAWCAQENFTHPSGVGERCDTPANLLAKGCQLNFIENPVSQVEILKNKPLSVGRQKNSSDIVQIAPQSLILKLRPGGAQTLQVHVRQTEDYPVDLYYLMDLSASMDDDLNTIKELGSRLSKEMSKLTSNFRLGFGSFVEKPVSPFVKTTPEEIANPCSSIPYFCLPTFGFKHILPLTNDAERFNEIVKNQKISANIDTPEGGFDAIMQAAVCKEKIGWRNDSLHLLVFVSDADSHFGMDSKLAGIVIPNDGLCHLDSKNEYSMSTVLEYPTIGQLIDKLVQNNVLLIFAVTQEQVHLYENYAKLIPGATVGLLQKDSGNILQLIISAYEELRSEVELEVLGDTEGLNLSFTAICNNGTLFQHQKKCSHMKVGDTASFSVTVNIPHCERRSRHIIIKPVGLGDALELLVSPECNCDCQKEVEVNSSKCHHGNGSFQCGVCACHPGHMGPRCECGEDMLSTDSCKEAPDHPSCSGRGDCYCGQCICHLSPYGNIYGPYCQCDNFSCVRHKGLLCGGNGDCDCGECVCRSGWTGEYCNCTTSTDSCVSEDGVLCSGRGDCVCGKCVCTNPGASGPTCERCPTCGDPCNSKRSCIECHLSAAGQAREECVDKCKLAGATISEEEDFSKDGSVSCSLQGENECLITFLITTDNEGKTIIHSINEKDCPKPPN

Row | SMILES | IC50
1 | O=C(N[C@@H](CCO[C@H]1C[C@H](CCc2ccc3c(n2)NCCC3)C1)C(=O)O)c1cccc(C2CC2)c1 [Compound 56, N-(3-cyclopropylbenzoyl)-O-(trans-3-(2-(5,6,7,8-tetrahydro-1,8-naphthyridin-2-yl)ethyl)cyclobutyl)homoserine] | 50 to 250 nM
2 | O=C(NC(CCO[C@H]1C[C@H](CCc2ccc3c(n2)NCCC3)C1)C(=O)O)c1ccc(C2CC2)cc1 (stereo partly drawn) [Compound 57, N-(4-cyclopropylbenzoyl)-O-(trans-3-(2-(5,6,7,8-tetrahydro-, 8-naphthyridin-2-yl)ethyl)cyclobutyl)homoserine] | 250 to 1000 nM
3 | CCC(CC)CC(=O)N[C@H](CCO[C@H]1C[C@H](CCc2ccc3c(n2)NCCC3)C1)C(=O)O [Compound 59, N-(3-ethylpentanoyl)-O-(trans-3-(2-(5,6,7,8-tetrahydro-1,8-naphthyridin-2-yl)ethyl)cyclobutyl)-D-homoserine] | > 1000 nM
4 | O=C(NC(CCO[C@H]1C[C@H](CCc2ccc3c(n2)NCCC3)C1)C(=O)O)c1cccc(F)c1Cl (stereo partly drawn) [Compound 60, N-(2-chloro-3-fluorobenzoyl)-O-(trans-3-(2-(5,6,7,8-tetrahydro-1,8-naphthyridin-2-yl)ethyl)cyclobutyl)homoserine] | 50 to 250 nM
5 | CCC(CC)CC(=O)NC(CCO[C@H]1C[C@H](CCc2ccc3c(n2)NCCC3)C1)C(=O)O (stereo partly drawn) [Compound 63, N-(3-ethylpentanoyl)-O-(trans-3-(2-(5,6,7,8-tetrahydro-1,8-naphthyridin-2-yl)ethyl)cyclobutyl)homoserine] | < 50 nM
6 | O=C(NC(CCO[C@H]1C[C@H](CCc2ccc3c(n2)NCCC3)C1)C(=O)O)c1cccc(F)c1Cl (stereo partly drawn) [Compound 64, N-(2-chloro-3-fluorobenzoyl)-O-(trans-3-(2-(5,6,7,8-tetrahydro-1,8-naphthyridin-2-yl)ethyl)cyclobutyl)homoserine] | < 50 nM
7 | O=C(N[C@@H](CCO[C@H]1C[C@@H](CCc2ccc3c(n2)NCCC3)C1)C(=O)O)c1ccc(F)c(F)c1 [Compound 66, N-(3,4-difluorobenzoyl)-O-(cis-3-(2-(5,6,7,8-tetrahydro-1,8-naphthyridin-2-yl)ethyl)cyclobutyl)homoserine] | 50 to 250 nM
8 | CCC(CC)CC(=O)N[C@@H](CCO[C@H]1C[C@@H](CCc2ccc3c(n2)NCCC3)C1)C(=O)O [Compound 67, N-(3-ethylpentanoyl)-O-(cis-3-(2-(5,6,7,8-tetrahydro-1,8-naphthyridin-2-yl)ethyl)cyclobutyl)homoserine] | 50 to 250 nM
9 | O=C(N[C@@H](CCO[C@H]1C[C@@H](CCc2ccc3c(n2)NCCC3)C1)C(=O)O)c1ccncc1 [Compound 68, N-isonicotinoyl-O-(cis-3-(2-(5,6,7,8-tetrahydro-1,8-naphthyridin-2-yl)ethyl)cyclobutyl)homoserine] | 250 to 1000 nM
10 | O=C(N[C@@H](CCO[C@H]1C[C@@H](CCc2ccc3c(n2)NCCC3)C1)C(=O)O)c1cccc(-c2cncs2)c1 [Compound 69, O-(cis-3-(2-(5,6,7,8-tetrahydro-1,8-naphthyridin-2-yl)ethyl)cyclobutyl)-N-(3-(thiazol-5-yl)benzoyl)homoserine] | 250 to 1000 nM
11 | O=C(O)C(CCO[C@H]1C[C@@H](CCc2ccc3c(n2)NCCC3)C1)NC(=O)[C@@H](CO)c1ccccc1 (stereo partly drawn) [Compound 70, N—((R)-3-hydroxy-2-phenylpropanoyl)-O-(cis-3-(2-(5,6,7,8-tetrahydro-1,8-naphthyridin-2-yl)ethyl)cyclobutyl)homoserine] | 50 to 250 nM
12 | O=C(O)C(CCO[C@H]1C[C@@H](CCc2ccc3c(n2)NCCC3)C1)NC(=O)[C@@H](CO)c1ccccc1 (stereo partly drawn) [Compound 71, N—((R)-3-hydroxy-2-phenylpropanoyl)-O-(cis-3-(2-(5,6,7,8-tetrahydro-1,8-naphthyridin-2-yl)ethyl)cyclobutyl)homoserine] | > 1000 nM
13 | Cn1cc(-c2cccc(C(=O)NC(CCO[C@H]3C[C@H](CCc4ccc5c(n4)NCCC5)C3)C(=O)O)c2)cn1 (stereo partly drawn) [Compound 72] | < 50 nM
14 | Cn1cc(-c2cccc(C(=O)NC(CCOCCCCc3ccc4c(n3)NCCC4)C(=O)O)c2)cn1 (stereo not drawn) [Compound 73, N-(3-(1-methyl-1H-pyrazol-4-yl)benzoyl)-O-(4-(5,6,7,8-tetrahydro-1,8-naphthyridin-2-yl)butyl)homoserine] | 50 to 250 nM
15 | O=C(O)C(CCOCCCCc1ccc2c(n1)NCCC2)NC(=O)[C@@H](O)c1ccccc1 (stereo partly drawn) [Compound 74, N—((S)-2-hydroxy-2-phenylacetyl)-O-(4-(5,6,7,8-tetrahydro-1,8-naphthyridin-2-yl)butyl)homoserine] | > 1000 nM
16 | O=C(O)C(CCOCCCCc1ccc2c(n1)NCCC2)NC(=O)[C@@H](O)c1ccccc1 (stereo partly drawn) [Compound 75, N—((S)-2-hydroxy-2-phenylacetyl)-O-(4-(5,6,7,8-tetrahydro-1,8-naphthyridin-2-yl)butyl)homoserine] | 250 to 1000 nM
17 | O=C(O)[C@H](CCOCCCCc1ccc2c(n1)NCCC2)NC(=O)[C@H](O)c1ccccc1 [Compound 76, N—((R)-2-hydroxy-2-phenylacetyl)-O-(4-(5,6,7,8-tetrahydro-1,8-naphthyridin-2-yl)butyl)homoserine] | 250 to 1000 nM
18 | O=C(O)C(CCO[C@H]1C[C@H](CCc2ccc3c(n2)NCCC3)C1)NC(=O)[C@@H](O)c1ccccc1 (stereo partly drawn) [Compound 78, N—((S)-2-hydroxy-2-phenylacetyl)-O-(trans-3-(2-(5,6,7,8-tetrahydro-1,8-naphthyridin-2-yl)ethyl)cyclobutyl)homoserine] | > 1000 nM
19 | O=C(O)C(CCO[C@H]1C[C@H](CCc2ccc3c(n2)NCCC3)C1)NC(=O)[C@@H](O)c1ccccc1 (stereo partly drawn) [Compound 79, N—((S)-2-hydroxy-2-phenylacetyl)-O-(trans-3-(2-(5,6,7,8-tetrahydro-1,8-naphthyridin-2-yl)ethyl)cyclobutyl)homoserine] | 50 to 250 nM
20 | O=C(O)C(CCO[C@H]1C[C@H](CCc2ccc3c(n2)NCCC3)C1)NC(=O)[C@H](O)c1ccccc1 (stereo partly drawn) [Compound 80, N—((R)-2-hydroxy-2-phenylacetyl)-O-(trans-3-(2-(5,6,7,8-tetrahydro-1,8-naphthyridin-2-yl)ethyl)cyclobutyl)homoserine] | 50 to 250 nM
21 | O=C(O)C(CCO[C@H]1C[C@H](CCc2ccc3c(n2)NCCC3)C1)NC(=O)[C@H](O)c1ccccc1 (stereo partly drawn) [Compound 81, N—((R)-2-hydroxy-2-phenylacetyl)-O-(trans-3-(2-(5,6,7,8-tetrahydro-1,8-naphthyridin-2-yl)ethyl)cyclobutyl)homoserine] | > 1000 nM
22 | O=C(O)C(CCO[C@H]1C[C@H](CCc2ccc3c(n2)NCCC3)C1)NC(=O)C1(c2ccccc2)CC1 (stereo partly drawn) [Compound 82, N-(1-phenylcyclopropane-1-carbonyl)-O-(trans-3-(2-(5,6,7,8-tetrahydro-1,8-naphthyridin-2-yl)ethyl)cyclobutyl)homoserine] | 250 to 1000 nM
23 | O=C(O)C(CCO[C@H]1C[C@H](CCc2ccc3c(n2)NCCC3)C1)NC(=O)C1(c2ccccc2)CCC1 (stereo partly drawn) [Compound 84, N-(1-phenylcyclobutane-1-carbonyl)-O-(trans-3-(2-(5,6,7,8-tetrahydro-1,8-naphthyridin-2-yl)ethyl)cyclobutyl)homoserine] | < 50 nM
24 | CC(C)(Cc1ccccc1)C(=O)NC(CCO[C@H]1C[C@H](CCc2ccc3c(n2)NCCC3)C1)C(=O)O (stereo partly drawn) [Compound 85, N-(2,2-dimethyl-3-phenylpropanoyl)-O-(trans-3-(2-(5,6,7,8-tetrahydro-1,8-naphthyridin-2-yl)ethyl)cyclobutyl)homoserine] | 250 to 1000 nM
25 | CC(C)(C)OC(=O)NC(CCO[C@H]1C[C@H](CCc2ccc3c(n2)NCCC3)C1)C(=O)O (stereo partly drawn) [Compound 86, N-(tert-butoxycarbonyl)-O-(trans-3-(2-(5,6,7,8-tetrahydro-1,8-naphthyridin-2-yl)ethyl)cyclobutyl)homoserine] | 250 to 1000 nM
26 | CC(C)(C(=O)NC(CCO[C@H]1C[C@H](CCc2ccc3c(n2)NCCC3)C1)C(=O)O)c1ccc(F)cc1 (stereo partly drawn) [Compound 87, N-(2-(4-fluorophenyl)-2-methylpropanoyl)-O-(trans-3-(2-(5,6,7,8-tetrahydro-1,8-naphthyridin-2-yl)ethyl)cyclobutyl)homoserine] | 250 to 1000 nM
27 | CC1(C(=O)NC(CCO[C@H]2C[C@H](CCc3ccc4c(n3)NCCC4)C2)C(=O)O)COC1 (stereo partly drawn) [Compound 88, N-(3-methyloxetane-3-carbonyl)-O-(trans-3-(2-(5,6,7,8-tetrahydro-1,8-naphthyridin-2-yl)ethyl)cyclobutyl)homoserine] | 50 to 250 nM

Same assay, conditions: inhibition of binding of TGF-b1 LAP to human integrin αvβ6; values given in ranges; listed as 61*

Row | SMILES | IC50
28 | O=C(NC(CCO[C@H]1C[C@H](CCc2ccc3c(n2)NCCC3)C1)C(=O)O)c1cccc(-c2cncs2)c1 (stereo partly drawn) [Compound 61, O-(trans-3-(2-(5,6,7,8-tetrahydro-1,8-naphthyridin-2-yl)ethyl)cyclobutyl)-N-(3-(thiazol-5-yl)benzoyl)homoserine] | > 1000 nM

Same assay, conditions: inhibition of binding of TGF-b1 LAP to human integrin αvβ6; values given in ranges; listed as 65**

Row | SMILES | IC50
29 | O=C(NC(CCO[C@H]1C[C@H](CCc2ccc3c(n2)NCCC3)C1)C(=O)O)c1cccc(-c2cncs2)c1 (stereo partly drawn) [Compound 65, O-(trans-3-(2-(5,6,7,8-tetrahydro-1,8-naphthyridin-2-yl)ethyl)cyclobutyl)-N-(3-(thiazol-5-yl)benzoyl)homoserine] | < 50 nM

Same assay, conditions: inhibition of binding of TGF-b1 LAP to human integrin αvβ6; values given in ranges; listed as 83*

Row | SMILES | IC50
30 | CC(C)(C(=O)NC(CCO[C@H]1C[C@H](CCc2ccc3c(n2)NCCC3)C1)C(=O)O)c1ccccc1 (stereo partly drawn) [Compound 83, N-(2-methyl-2-phenylpropanoyl)-O-(trans-3-(2-(5,6,7,8-tetrahydro-1,8-naphthyridin-2-yl)ethyl)cyclobutyl)homoserine] | > 1000 nM

Source: patent US11180494B2, “Substituted amino acids as integrin inhibitors” (Pliant Therapeutics, Inc., priority 2018, dated 2021)
